Earlier results as cited in patent US20250255927A1, “COMPOSITIONS AND METHODS FOR ALLEVIATING ADVERSE EFFECTS FROM RESPONSIBLE ALCOHOL CONSUMPTION” (Cheers Health, Inc., priority 2023, published 2025).

Tests used:
[1] = rat models
pain = conditions: 1 g of salicin

time to reach the brain without any metabolic change [1] [min] | SMILES | amount of aspirin with comparable pain relief effect (pain) [mg]
≤ 30 | CCNC(=O)CC[C@H](N)C(=O)O [L-Theanine] | –
– | OCc1ccccc1O[C@@H]1O[C@H](CO)[C@@H](O)[C@H](O)[C@H]1O [salicin] | ~620
